# Experimental data taken from patent US20040038861A1, “Methods and compositions for normalizing lipid levels in mammalian tissues” (priority 2001, published 2004).
# How the values were obtained:
# Format in all cases: cell-based, rat
# soleus muscle [1] = assay: Individual free fatty acids by gas chromatography in isolated soleus muscle from normally fed rats
# Procedure: Animal models. Normallyfed rats. All protocols were approved by the University of Auckland Animal Ethics Committee. Male Wistar rats, (age=50 d) weighing 200-250 g, were housed in a constant 12 h/12 h-light/dark cycle and received standard rat-chow (Diet 86, NRM, Auckland) and water ad libitum. The standard diet contained 5% fat (w/w), which comprised mainly beef tallow. The triglyceride, total and free fatty acid contents of representative samples of this diet were analyzed, and are shown in Table 3. Rats were anaesthetized by intraperitoneal injection of sodium pentobarbital (45 mg/kg body weight) then sacrificed by cervical dislocation.
# (§1) Soleus muscle tissue isolation and incuhation.Immersion and incubation media was Krebs-Henseleit buffer (KHB) containing 118.5 mM NaCl, 4.75 mM KCl, 1.18 mM MgSO4.7H2O and KH2PO4, 24.8 mM NaHCO3, 2.54 mM CaCl2 and 10 mM d-glucose. The medium was gassed continuously with 95% O2/5% CO2. […] Soleus muscles of both legs were excised keeping the tissue immersed in KHB; muscles were separated into two equal parts and transferred to the incubation flasks. At the completion of incubation the muscles were snap frozen in liquid nitrogen, and then trimmed of connective tissue and all visible fat. The muscle strips were stored at −80° C. until analysis.
# (§2) Lipid extraction and chromatographic separation of fatty acids. Total lipids were extracted from muscle strips by a modified version of the method of Bligh and Dyer (Gorski et al., 1988, Mol & Cell Biochem 178:113-118; 1. Bligh et al., 1959, Can J Biochem Physiol 37: 911-917). Muscles were homogenised (Soniprep 150) in 0.4 ml of deionised water. Solvent volumes used herein were varied according to the water content of the muscle (ie muscle weight) as described (Bligh & Dyer, supra). 2 vols of methanol containing 0.005% butylated hydroxy toluene (BHT) and 1 vol chloroform were added to the muscle suspension. Homogenates were vortexed at maximum speed for 2 minutes and centrifuged at 2,500 g for 4 minutes. Supernatants were recovered and pellets re-extracted with 2 vol methanol, 1 vol chloroform and 0.8 vol 0.2 N HCl. Residues were vortexed for 2 min then centrifuged at 3,500 g for 3 min. After centrifugation the combined supernatants were diluted with 2v each of milli Q water and chloroform and the phases separated by centrifugation at 3,500 g for 4 minutes. The lower chloroform phase was recovered, neutralised by dropwise addition of 0.2 N methanolic NH4OH and evaporated down in a stream of N2. The samples were stored at −80° C. until required.
# (§3) Aminopropyl phase (250 mg) was packed into 16 ml teflon columns with teflon frits placed at the top and bottom of the bonded phase. Columns were placed in a Vac Elut apparatus and washed twice with 2 ml portions of hexane (Prasad et al., 1988, J Chromato 428: 221-228; Kaluzny et al., 1985, J Lipid Res 26: 135-140). The dry lipid samples were taken up in two 0.150 ml portions of chloroform and applied to the column under atmospheric pressure. After adsorption the neutral lipids were eluted with 4 ml of chloroform-2-propanol (2:1, v/v) and the free fatty acids eluted with 4 ml of 2% acetic acid in diethyl ether. The solvent containing the free fatty acids was dried under a stream of N2.
# Gas-liquid chromatographic analysis. Dry free fatty acid residues were processed for derivatisation of methyl esters by the boron trifluoride-methanol method (Prasad, supra). 1 ml of boron trifluoride in methanol (BF3) was added to each sample, the sample vials were heated at 70° C. for 5 minutes, shaken vigorously, and baked for a further 10 minutes. Once the samples reached room temperature 0.5 ml milli Q water was added, the sample vials shaken, 0.1 ml heptane was added and the sample shaken again. 0.05 ml of the top heptane layer was removed for GLC analysis. […]
# soleus muscle [2] = assay: Triglyceride and free fatty acid content (enzymatic) in isolated soleus muscle of rats fed high fat diets; conditions: diet with 40% added lard, 100 nM amylin or CGRP-1, 4.4 μM norepinephrine, 1 h
# From the text: High-fatted rats. Groups of male Wistar rats (n=21/diet) were ad libitum fed high-fat diets containing standard rat chow to which 40% (w/w) of lard, corn oil or olive oil had been added, from the time of weaning (age=21 d) until sacrifice at 50 d. Triacylglycerol from lard contains predominantly saturated fatty acids; that from corn oil […], see Table 4.
# as §1, §2, §3
# Determination of tissue free fatty acids and triacylglycerol concentration by enzymatic analyses. Free fatty acids were separated from total lipid, evaporated under a stream of N2 and stored at −80° C. until analysis. Samples were dissolved in 50 μl of warm ethanol (35-40° C.), and 0.625 ml of a Triton X-100 (6% w/v) solution was added once the ethanol reached room temperature. The solution was stirred for 30 min, then made up to 0.825 ml with the Triton solution. Free fatty acids were quantified using a commercial method (Boehringer Mannheim) adapted for micro analyses (Cobas Mira, Roche Diagnostics), with palmitic acid standards. Triacyl glycerol levels were quantified in the total lipid fraction (Pointe Scientific) with a glycerol standard.
# Total lipid was extracted and quantitated. Results are shown in FIGS. 18A NEFA and 18B triglyceride.
# soleus muscle [3] = assay: Lipid metabolites (free fatty acid, glycerol, triglyceride; enzymatic analysis) in isolated soleus muscle from normally fed rats; conditions: soleus, normally fed rats, 100 nM amylin or CGRP-1, 4.4 μM norepinephrine
# [4] = normally fed rats, hormone 1 hour, GC
# [5] = normally fed rats, hormone 1 hour, GC, listed as norepinephrine
structure (smiles),measurement,setting,value
"NC[C@H](O)c1ccc(O)c(O)c1 [Norepinephrine, norepinephrine]",Total free fatty acids,"soleus muscle [1]; 1 hour, GC, hormone concentrations 100 nM for all",0.527 ± 0.03 nmol/g wwt
same,free fatty acid C14:0 as percentage of total resting fatty acid,"soleus muscle [1]; normally fed rats, 1 hour",3.1%
same,free fatty acid C15:0 as percentage of total resting fatty acid,"soleus muscle [1]; normally fed rats, 1 hour",10.9%
same,free fatty acid C16:0 as percentage of total resting fatty acid,"soleus muscle [1]; normally fed rats, 1 hour",2.2%
same,free fatty acid C16:1 (n-7) as percentage of total resting fatty acid,"soleus muscle [1]; normally fed rats, 1 hour",14.3%
same,free fatty acid C16:1 (n-9) as percentage of total resting fatty acid,"soleus muscle [1]; normally fed rats, 1 hour",6.0%
same,free fatty acid C17:0 as percentage of total resting fatty acid,"soleus muscle [1]; normally fed rats, 1 hour",7.2%
same,free fatty acid C18:0 as percentage of total resting fatty acid,"soleus muscle [1]; normally fed rats, 1 hour",2.4%
same,free fatty acid C18:1 (n-7) as percentage of total resting fatty acid,"soleus muscle [1]; normally fed rats, 1 hour",1.2%
same,free fatty acid C18:1 (n-9) as percentage of total resting fatty acid,"soleus muscle [1]; normally fed rats, 1 hour",1.4%
same,free fatty acid C18:2 as percentage of total resting fatty acid,"soleus muscle [1]; normally fed rats, 1 hour",0.8%
same,free fatty acid C18:3 as percentage of total resting fatty acid,"soleus muscle [1]; normally fed rats, 1 hour",2.5%
same,free fatty acid C20:0 as percentage of total resting fatty acid,"soleus muscle [1]; normally fed rats, 1 hour",2.0%
same,free fatty acid C20:4 as percentage of total resting fatty acid,"soleus muscle [1]; normally fed rats, 1 hour",0.9%
same,free fatty acid C20:5 as percentage of total resting fatty acid,"soleus muscle [1]; normally fed rats, 1 hour",0.4%
same,free fatty acid C22:4 as percentage of total resting fatty acid,"soleus muscle [1]; normally fed rats, 1 hour",7.5%
same,free fatty acid C22:6 as percentage of total resting fatty acid,"soleus muscle [1]; normally fed rats, 1 hour",2.5%
same,free fatty acid adrenic C22:4,soleus muscle [1]; [4],0.007 ± 0.001 nmol/g wwt
same,free fatty acid arachidic C20:0,soleus muscle [1]; [4],0.003 ± 0.001 nmol/g wwt
same,free fatty acid arachidonic C20:4,soleus muscle [1]; [4],0.015 ± 0.0007 nmol/g wwt
same,free fatty acid cervonic C22:6,soleus muscle [1]; [4],0.022 ± 0.0015 nmol/g wwt
same,free fatty acid linoleic C18:2,soleus muscle [1]; [4],0.043 ± 0.003 nmol/g wwt
same,free fatty acid linolenic C18:3,soleus muscle [1]; [4],0.007 ± 0.0025 nmol/g wwt
same,free fatty acid margaric C17:0,soleus muscle [1]; [4],0.01 ± 0.0007 nmol/g wwt
same,free fatty acid myristic C14:0,soleus muscle [1]; [4],0.023 ± 0.001 nmol/g wwt
same,free fatty acid oleic C18:1,soleus muscle [1]; [4],0.07 ± 0.0056 nmol/g wwt
same,free fatty acid palmitic C16:0,soleus muscle [1]; [4],0.175 ± 0.011 nmol/g wwt
same,free fatty acid palmitoleic (n-7) C16:1,soleus muscle [1]; [4],0.015 ± 0.002 nmol/g wwt
same,free fatty acid palmitoleic (n-9) C16:1,soleus muscle [1]; [4],0.007 ± 0.0007 nmol/g wwt
same,free fatty acid pentadecanoic C15:0,soleus muscle [1]; [4],0.01 ± 0.0012 nmol/g wwt
same,free fatty acid stearic C18:0,soleus muscle [1]; [4],0.1 ± 0.006 nmol/g wwt
same,free fatty acid timnodonic C20:5,soleus muscle [1]; [4],0.002 ± 0.0005 nmol/g wwt
same,free fatty acid vaccenic C18:1,soleus muscle [1]; [4],0.015 ± 0.0008 nmol/g wwt
same,free fatty acid arachidonic C20:4,soleus muscle [1]; [5],0.015±0.0007 nmol/g wwt
same,free fatty acid cervonic C22:6,soleus muscle [1]; [5],0.022±0.0015 nmol/g wwt
same,free fatty acid palmitoleic (n-9) C16:1,soleus muscle [1]; [5],0.007±0.0007 nmol/g wwt
same,soleus muscle triglyceride content,soleus muscle [2]; control 1.14±0.16,0.69 ± 0.09 µmol/g
same,soleus muscle free fatty acid content,soleus muscle [2]; control 43±8,75 ± 7 nmol/g
same,triacylglycerol (triglyceride) content,"soleus muscle [3]; 60-min, control 1.17±0.15, not significant",0.81 ± 0.09 µmol/g
same,intramuscular free fatty acid content,"soleus muscle [3]; 1 h, 23.7 nM insulin, control 78±21",295 ± 27 nmol/g
same,intramuscular glycerol content,"soleus muscle [3]; 1 h, control 0.07±0.007",0.04 ± 0.005 nmol/g
